According to ChEMBL document CHEMBL5233265, “Recent advances in the design and development of formyl peptide receptor 2 (FPR2/ALX) agonists as pro-resolving agents with diverse therapeutic potential” (Eur J Med Chem, 2021):

Key:
Rattus norvegicus [1] = assay: Neuroprotective activity against ischemia-reperfusion injury Sprague-Dawley rat model assessed as increase in proximal viable myocardium at 10 mg/kg,po qd measured after 6 weeks; type: functional
Rattus norvegicus [2] = assay: Neuroprotective activity against ischemia-reperfusion injury Sprague-Dawley rat model assessed as increase in distal viable myocardium at 10 mg/kg,po qd measured after 6 weeks; type: functional
HL-60 [3] = assay: Inhibition of cell migration in human HL-60 cells incubated for 120 mins in presence of serum amyloid A by transwell assay; type: functional, cell-based; conditions: HL-60, 2 h
[4] = target: T1, Formyl peptide receptor 2 (Mus musculus, UniProt O88536); assay: Agonist activity at mouse FPR2 expressed in CHO-A12 cells assessed as cAMP level incubated for 1.5 hr by HTRF assay; type: cell-based
T1 sequence (O88536 whole entry): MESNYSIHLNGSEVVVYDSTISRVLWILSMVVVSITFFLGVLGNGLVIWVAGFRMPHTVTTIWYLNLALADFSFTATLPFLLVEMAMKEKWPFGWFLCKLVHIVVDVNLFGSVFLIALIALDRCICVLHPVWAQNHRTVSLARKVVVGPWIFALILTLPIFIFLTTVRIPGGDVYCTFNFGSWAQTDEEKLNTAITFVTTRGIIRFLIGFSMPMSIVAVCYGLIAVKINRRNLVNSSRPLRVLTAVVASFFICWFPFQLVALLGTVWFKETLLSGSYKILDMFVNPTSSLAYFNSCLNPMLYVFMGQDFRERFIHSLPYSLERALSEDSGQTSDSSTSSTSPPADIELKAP

Rattus norvegicus [5] = assay: Neuroprotective activity against ischemia-reperfusion injury Sprague-Dawley rat model assessed as increase in mid viable myocardium at 10 mg/kg,po qd measured after 6 weeks; type: functional
Mus musculus [6] = assay: Neuroprotective activity against Myocardial infarction C57BL/6 mouse model assessed as reduction in infarct area at 1 mg/kg,po qd measured after 4 weeks; type: functional; design: scale not given: the % may be the effect or the level left
Mus musculus [7] = assay: Neuroprotective activity against Myocardial infarction C57BL/6 mouse model assessed as fold increase in infarct wall thickness at 10 mg/kg,po qd measured after 4 weeks; type: functional
fMet-Leu-Phe receptor [8] = target: T2, fMet-Leu-Phe receptor (Homo sapiens, UniProt P21462); assay: Agonist activity at human FPR1 expressed in CHO-A12 cells assessed as cAMP level incubated for 1.5 hr by HTRF assay; type: cell-based
T2 sequence (P21462 whole entry): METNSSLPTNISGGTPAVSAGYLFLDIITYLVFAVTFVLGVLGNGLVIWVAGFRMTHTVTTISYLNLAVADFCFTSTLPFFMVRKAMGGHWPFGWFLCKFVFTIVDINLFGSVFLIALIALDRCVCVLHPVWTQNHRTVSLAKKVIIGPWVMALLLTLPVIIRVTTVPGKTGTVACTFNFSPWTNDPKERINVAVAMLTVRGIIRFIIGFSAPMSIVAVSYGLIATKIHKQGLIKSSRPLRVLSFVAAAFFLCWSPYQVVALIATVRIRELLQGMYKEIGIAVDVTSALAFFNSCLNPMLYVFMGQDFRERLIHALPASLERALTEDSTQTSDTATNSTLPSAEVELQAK

HL-60 [9] = assay: Induction of cell migration in human HL-60 cells incubated for 120 mins by transwell assay; type: functional, cell-based; conditions: HL-60, 2 h
Mus musculus [10] = assay: Neuroprotective activity against Myocardial infarction C57BL/6 mouse model assessed as reduction in infarct area at 10 mg/kg,po qd measured after 4 weeks; type: functional; design: scale not given: the % may be the effect or the level left
Rattus norvegicus [11] = assay: Neuroprotective activity against ischemia-reperfusion injury Sprague-Dawley rat model assessed as increase in ejection fraction at 10 mg/kg,po qd measured after 6 weeks; type: functional
[12] = target: T3, N-formyl peptide receptor 2 (Homo sapiens, UniProt P25090); assay: Agonist activity at human FPR2 expressed in CHO-A12 cells assessed as cAMP level incubated for 1.5 hr by HTRF assay; type: cell-based
T3 sequence (P25090 whole entry): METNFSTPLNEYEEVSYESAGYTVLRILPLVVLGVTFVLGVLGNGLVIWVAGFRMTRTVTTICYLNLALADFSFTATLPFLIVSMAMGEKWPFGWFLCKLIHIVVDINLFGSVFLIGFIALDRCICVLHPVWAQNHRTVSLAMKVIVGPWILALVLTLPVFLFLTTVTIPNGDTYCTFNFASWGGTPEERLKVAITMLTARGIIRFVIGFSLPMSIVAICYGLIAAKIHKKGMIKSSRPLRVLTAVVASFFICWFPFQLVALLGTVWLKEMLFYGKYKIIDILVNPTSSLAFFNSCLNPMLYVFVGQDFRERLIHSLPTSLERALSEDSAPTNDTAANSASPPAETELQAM

[13] = target: T3, N-formyl peptide receptor 2; assay: Agonist activity at human FPR2 expressed in CHO-K1 cells by beta-arrestin recruitment assay; type: cell-based
[14] = target: T4, Formyl peptide receptor-related sequence 1 (Mus musculus, UniProt O08790); assay: Agonist activity at mouse FPR3 expressed in CHO-A12 cells assessed as cAMP level incubated for 1.5 hr by HTRF assay; type: cell-based
T4 sequence (O08790 whole entry): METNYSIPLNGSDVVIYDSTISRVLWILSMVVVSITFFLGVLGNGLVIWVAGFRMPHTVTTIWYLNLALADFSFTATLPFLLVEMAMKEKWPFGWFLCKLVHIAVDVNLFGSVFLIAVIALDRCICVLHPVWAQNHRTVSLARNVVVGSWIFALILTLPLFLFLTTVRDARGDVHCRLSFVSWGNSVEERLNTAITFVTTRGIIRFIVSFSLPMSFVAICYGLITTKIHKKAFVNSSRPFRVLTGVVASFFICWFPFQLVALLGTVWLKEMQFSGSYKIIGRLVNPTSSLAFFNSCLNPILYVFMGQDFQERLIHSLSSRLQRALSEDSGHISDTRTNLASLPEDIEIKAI

fMet-Leu-Phe receptor [15] = target: T5, fMet-Leu-Phe receptor (Mus musculus, UniProt P33766); assay: Agonist activity at mouse FPR1 expressed in CHO-A12 cells assessed as cAMP level incubated for 1.5 hr by HTRF assay; type: cell-based
T5 sequence (P33766 whole entry): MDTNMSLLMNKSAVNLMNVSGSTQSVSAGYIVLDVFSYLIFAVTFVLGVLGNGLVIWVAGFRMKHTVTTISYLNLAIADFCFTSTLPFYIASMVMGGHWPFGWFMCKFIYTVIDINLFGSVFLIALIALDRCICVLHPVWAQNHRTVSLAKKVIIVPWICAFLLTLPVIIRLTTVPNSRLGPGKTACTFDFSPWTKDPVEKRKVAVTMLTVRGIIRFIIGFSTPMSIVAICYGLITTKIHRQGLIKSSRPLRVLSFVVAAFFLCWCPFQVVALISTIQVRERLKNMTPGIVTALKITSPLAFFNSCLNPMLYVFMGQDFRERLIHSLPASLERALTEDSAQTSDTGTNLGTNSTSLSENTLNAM

IC50 (HL-60 [3]): 189 nM
EC50 [4]: 50 nM
EC50 (fMet-Leu-Phe receptor [8]): 50 nM
EC50 (HL-60 [9]): 78 nM
EC50 [12]: 10 nM
EC50 [13]: 3100 nM
EC50 [14]: > 1000 nM
EC50 (fMet-Leu-Phe receptor [15]): 20 nM
SMILES: Cn1c(C(C)(C)C)c(NC(=O)Nc2ccc(Cl)cc2)c(=O)n1-c1ccccc1
Activity (Rattus norvegicus [1]): 34%
Activity (Rattus norvegicus [2]): 35%
Activity (Rattus norvegicus [5]): 44%
Activity (Mus musculus [6]): 44%
fold change (FC) (Mus musculus [7]): 1.6
Activity (Mus musculus [10]): 49%
Activity (Rattus norvegicus [11]): 32%
